Laboratory results from patent US20260256792A1, “TREATMENT OF CHRONIC SPONTANEOUS URTICARIA BY ADMINISTERING (R)-2-[3-[4-AMINO-3-(2-FLUORO-4-PHENOXY-PHENYL)PYRAZOLO[3,4-D]PYRIMIDIN-1-YL]PIPERIDINE-1-CARBONYL]-4-METHYL-4-[4-(OXETAN-3-YL)PIPERAZIN-1-YL]PENT-2-ENENITRILE” (priority 2023, published 2026).

Tested on: moderate-to-severe chronic spontaneous urticaria (CSU)
Assay: Phase 2 CSU study: itch severity score over 7 days (ISS7)
Assay type: in vivo, human
Conditions: for Change from Baseline in ISS7 at Week 12, LS Mean / Change from Baseline in ISS7 at Week 12, LS Mean Diff vs. placebo / Change from Baseline in ISS7 at Week 12, Mean: Omalizumab-naïve population; for ISS7 change from baseline at Week 12, LS Mean / ISS7 change from baseline at Week 12, LS Mean Diff vs. placebo: ANCOVA
Source text: The study comprises a 12 week, randomized, double-blind, placebo-controlled, multi-center, dose-ranging efficacy and safety phase, followed by a 40 week open label extension (OLE) phase (see FIG. 1). The study consists of three phases and an optional OLE phase. […] Clinically, CSU is characterized by the spontaneous and recurrent appearance of pruritic hives. The proposed primary endpoints were the UAS7 at Week 12 in EU and EU reference countries and the ISS7 in the US. Regardless of where a participant was from, all assessments were the same. The UAS7 score is a composite score containing both the HSS7 and the ISS7. This allowed a global assessment of the two key components of urticaria: hives and itch. […] The UAS is a validated PRO measure. […] The daily UAS scores range from 0 to 6 point/day. […] Patients were to complete the UAS using the e-diary. […] The following secondary endpoints were to be analyzed using the same approach as for the primary endpoint: • Change from baseline in UAS7 at Week 4 • Change from baseline in UAS7 at Week 12 (for US and US reference countries) • Change from baseline in ISS7 at Week 12 (except US and US reference countries) • Change from baseline in HSS7 at Week 12

[1] = 400 mg QPM, Duration of disease (years) <2
[2] = 400 mg QPM, Duration of disease (years) >10
[3] = 400 mg QPM, Ethnicity Non-Hispanic
[4] = 400 mg QPM, History of angioedema No
[5] = 400 mg QPM, History of angioedema Yes
[6] = 400 mg QPM, Race All the Others
[7] = 400 mg QPM, Region Eastern Europe
[8] = 400 mg QPM, Region Latin America
[9] = 400 mg QPM, Region Western Countries
[10] = 400 mg QPM, omalizumab-naïve population
[11] = 400 mg QPM, omalizumab-naïve population with outlier removed
[12] = 400 mg TID, Age group (years) <44 (Median)
[13] = 400 mg TID, Age group (years) <65
[14] = 400 mg TID, Age group (years) ≥44 (Median)
[15] = 400 mg TID, Baseline BHRA BHRA+
[16] = 400 mg TID, Baseline BHRA BHRA−
[17] = 400 mg TID, Baseline Eosinophils (10^9/L) <0.150
[18] = 400 mg TID, Baseline Eosinophils (10^9/L) <0.165 (Median)
[19] = 400 mg TID, Baseline Eosinophils (10^9/L) <0.3
[20] = 400 mg TID, Baseline Eosinophils (10^9/L) ≥0.150
[21] = 400 mg TID, Baseline Eosinophils (10^9/L) ≥0.165 (Median)
[22] = 400 mg TID, Baseline Eosinophils (10^9/L) ≥0.3
[23] = 400 mg TID, Baseline H1-antihistamines dose 1-fold
[24] = 400 mg TID, Baseline H1-antihistamines dose 2 to 4-fold standard dose

Structure (SMILES): CC(C)(C=C(C#N)C(=O)N1CCC[C@@H](n2nc(-c3ccc(Oc4ccccc4)cc3F)c3c(N)ncnc32)C1)N1CCN(C2COC2)CC1 [rilzabrutinib, (R)-2-[3-[4-amino-3-(2-fluoro-4-phenoxy-phenyl)pyrazolo[3,4-d]pyrimidin-1-yl]piperidine-1-carbonyl]-4-methyl-4-[4-(oxetan-3-yl)piperazin-1-yl]pent-2-enenitrile]
- Change from Baseline in ISS7 at Week 12, LS Mean [1]: −4.83
- Change from Baseline in ISS7 at Week 12, LS Mean Diff vs. placebo [1]: −1.18
- Change from Baseline in ISS7 at Week 12, Mean [1]: −5.46
- Change from Baseline in ISS7 at Week 12, LS Mean [2]: −0.20
- Change from Baseline in ISS7 at Week 12, LS Mean Diff vs. placebo [2]: 3.49
- Change from Baseline in ISS7 at Week 12, Mean [2]: −3.29
- Change from Baseline in ISS7 at Week 12, LS Mean (400 mg QPM, Ethnicity Hispanic): −4.19
- Change from Baseline in ISS7 at Week 12, LS Mean Diff vs. placebo (400 mg QPM, Ethnicity Hispanic): 2.82
- Change from Baseline in ISS7 at Week 12, Mean (400 mg QPM, Ethnicity Hispanic): −5.04
- Change from Baseline in ISS7 at Week 12, LS Mean [3]: −5.29
- Change from Baseline in ISS7 at Week 12, LS Mean Diff vs. placebo [3]: −0.82
- Change from Baseline in ISS7 at Week 12, Mean [3]: −6.12
- Change from Baseline in ISS7 at Week 12, Mean (400 mg QPM, Gender Female): −5.86
- Change from Baseline in ISS7 at Week 12, Mean (400 mg QPM, Gender Male): −5.20
- Change from Baseline in ISS7 at Week 12, LS Mean [4]: −4.56
- Change from Baseline in ISS7 at Week 12, LS Mean Diff vs. placebo [4]: 0.78
- Change from Baseline in ISS7 at Week 12, Mean [4]: −5.32
- Change from Baseline in ISS7 at Week 12, LS Mean [5]: −5.00
- Change from Baseline in ISS7 at Week 12, LS Mean Diff vs. placebo [5]: 0.25
- Change from Baseline in ISS7 at Week 12, Mean [5]: −6.31
- ISS7 at Week 12, Mean (400 mg QPM, ITT population): 11.37
- ISS7 at Week 12, Median (400 mg QPM, ITT population): 11.20
- ISS7 change from baseline at Week 12, Mean (400 mg QPM, ITT population): −5.95
- ISS7 change from baseline at Week 12, Median (400 mg QPM, ITT population): −5.67
- ISS7 change from baseline at Week 12, LS Mean (400 mg QPM, ITT population): −5.46 points
- ISS7 change from baseline at Week 12, LS Mean Diff vs. placebo (400 mg QPM, ITT population): 0.85
- Change from Baseline in ISS7 at Week 12, LS Mean [6]: −4.94
- Change from Baseline in ISS7 at Week 12, LS Mean Diff vs. placebo [6]: −1.48
- Change from Baseline in ISS7 at Week 12, Mean [6]: −5.66
- Change from Baseline in ISS7 at Week 12, LS Mean (400 mg QPM, Race White): −4.41
- Change from Baseline in ISS7 at Week 12, LS Mean Diff vs. placebo (400 mg QPM, Race White): 1.60
- Change from Baseline in ISS7 at Week 12, Mean (400 mg QPM, Race White): −5.70
- Change from Baseline in ISS7 at Week 12, LS Mean (400 mg QPM, Region Asia): −5.17
- Change from Baseline in ISS7 at Week 12, LS Mean Diff vs. placebo (400 mg QPM, Region Asia): −1.72
- Change from Baseline in ISS7 at Week 12, Mean (400 mg QPM, Region Asia): −5.66
- Change from Baseline in ISS7 at Week 12, LS Mean [7]: −4.74
- Change from Baseline in ISS7 at Week 12, LS Mean Diff vs. placebo [7]: 7.93
- Change from Baseline in ISS7 at Week 12, Mean [7]: −5.54
- Change from Baseline in ISS7 at Week 12, LS Mean [8]: −5.19
- Change from Baseline in ISS7 at Week 12, LS Mean Diff vs. placebo [8]: 1.40
- Change from Baseline in ISS7 at Week 12, Mean [8]: −6.51
- Change from Baseline in ISS7 at Week 12, LS Mean [9]: −3.02
- Change from Baseline in ISS7 at Week 12, LS Mean Diff vs. placebo [9]: 1.53
- Change from Baseline in ISS7 at Week 12, Mean [9]: −4.61
- ISS7 at Week 12, Median [10]: 11.60
- ISS7 change from baseline at Week 12, Mean [10]: −5.69
- ISS7 change from baseline at Week 12, Median [10]: −5.33
- ISS7 at Week 12, Median [11]: 11.60
- ISS7 change from baseline at Week 12, Mean [11]: −5.69
- ISS7 change from baseline at Week 12, Median [11]: −5.33
- ISS7 change from baseline at Week 12, LS Mean [11]: −5.29 points
- ISS7 change from baseline at Week 12, LS Mean Diff vs. placebo [11]: 0.42
- ISS7 change from baseline at Week 12, LS Mean [10]: −5.19 points
- ISS7 change from baseline at Week 12, LS Mean Diff vs. placebo [10]: 0.58
- patients with improvement in the weekly ISS7 (400 mg TID arm): all patients except one showed improvement
- Change from Baseline in ISS7 at Week 12, LS Mean [12]: −9.04
- Change from Baseline in ISS7 at Week 12, LS Mean Diff vs. placebo [12]: −4.56
- Change from Baseline in ISS7 at Week 12, LS Mean [13]: −8.63
- Change from Baseline in ISS7 at Week 12, LS Mean Diff vs. placebo [13]: −2.97
- Change from Baseline in ISS7 at Week 12, Mean [13]: −9.73
- Change from Baseline in ISS7 at Week 12, LS Mean [14]: −9.26
- Change from Baseline in ISS7 at Week 12, LS Mean Diff vs. placebo [14]: −2.66
- Change from Baseline in ISS7 at Week 12, Mean [14]: −10.16
- Change from Baseline in ISS7 at Week 12, Mean (400 mg TID, Age group (years) ≥65): −13.50
- Change from Baseline in ISS7 at Week 12, LS Mean [15]: −12.96
- Change from Baseline in ISS7 at Week 12, LS Mean Diff vs. placebo [15]: −7.58
- Change from Baseline in ISS7 at Week 12, Mean [15]: −12.42
- Change from Baseline in ISS7 at Week 12, LS Mean [16]: −8.82
- Change from Baseline in ISS7 at Week 12, Mean [16]: −9.91
- Change from Baseline in ISS7 at Week 12, LS Mean Diff vs. placebo (400 mg TID, Baseline BMI (kg/m^2) ≥30): −3.19
- Change from Baseline in ISS7 at Week 12, LS Mean [17]: −10.28
- Change from Baseline in ISS7 at Week 12, LS Mean Diff vs. placebo [17]: −3.50
- Change from Baseline in ISS7 at Week 12, LS Mean [18]: −10.22
- Change from Baseline in ISS7 at Week 12, LS Mean Diff vs. placebo [18]: −3.71
- Change from Baseline in ISS7 at Week 12, Mean [18]: −10.99
- Change from Baseline in ISS7 at Week 12, LS Mean [19]: −9.46
- Change from Baseline in ISS7 at Week 12, LS Mean Diff vs. placebo [19]: −3.99
- Change from Baseline in ISS7 at Week 12, Mean [19]: −10.61
- Change from Baseline in ISS7 at Week 12, LS Mean [20]: −8.30
- Change from Baseline in ISS7 at Week 12, LS Mean Diff vs. placebo [20]: −4.31
- Change from Baseline in ISS7 at Week 12, LS Mean [21]: −8.24
- Change from Baseline in ISS7 at Week 12, LS Mean Diff vs. placebo [21]: −4.16
- Change from Baseline in ISS7 at Week 12, Mean [21]: −9.55
- Change from Baseline in ISS7 at Week 12, LS Mean [22]: −8.12
- Change from Baseline in ISS7 at Week 12, LS Mean Diff vs. placebo [22]: −3.27
- Change from Baseline in ISS7 at Week 12, Mean [22]: −8.68
- Change from Baseline in ISS7 at Week 12, LS Mean [23]: −8.05
- Change from Baseline in ISS7 at Week 12, LS Mean Diff vs. placebo [23]: −1.22
- Change from Baseline in ISS7 at Week 12, Mean [23]: −8.88
- Change from Baseline in ISS7 at Week 12, LS Mean [24]: −11.00
- Change from Baseline in ISS7 at Week 12, LS Mean Diff vs. placebo [24]: −7.52
